The record followed here is publication PMC5025651, “Reprofiled anthelmintics abate hypervirulent stationary-phase Clostridium difficile” (Scientific Reports, 2016).

Values after ≈ are worked out from the molar mass of the structure shown.

In experiment [1] the test system is C. difficile strain 4118 (CD4118, ATCC BAA-1870, ribotype 027). Kind of experiment: MIC by broth microdilution. The note with it: for MIC: Clostridioides difficile, ATCCBAA1870, BHIS broth, anaerobic, 20–24 h, n = 2, read-out: MIC C. difficile 4118; for in vitro activity against CD4118 (in words): growth inhibition, MIC assay. It counts as cell-based, Clostridium difficile.

Experiment [2] concerns C. difficile strain 630 (CD630, ATCC BAA-1382-FZ, ribotype 012). Kind of experiment: MIC by broth microdilution. To be noted: for MIC: Clostridioides difficile, ATCCBAA1382, BHIS broth, anaerobic, 20–24 h, n = 2; for in vitro activity against CD630 (in words): growth inhibition, MIC assay. It counts as cell-based, Clostridium difficile.
In the next experiment the test system is B. subtilis ATCC 6051. Kind of experiment: MIC by broth microdilution. It counts as cell-based. To be noted: Bacillus subtilis, ATCC6051; B. subtilis ATCC 6051; CAMHB, aerobic; duplicate; read-out: MIC.
Experiment [3] concerns B. fragilis Strain CL05T00C42. Description: MIC by broth microdilution. It counts as cell-based. The note with it: Bacteroides fragilis; B. fragilis CL05T00C42; supplemented Brucella broth, anaerobic; duplicate; read-out: MIC.
The next experiment concerns P. nigrescens ATCC 33563. Description: MIC by broth microdilution. It counts as cell-based. To be noted: Prevotella nigrescens, ATCC33563; P. nigrescens ATCC 33563; supplemented Brucella broth, anaerobic; duplicate; read-out: MIC.
Experiment [4] deals with L. reuteri Strain CF48-3A. Kind of experiment: MIC by broth microdilution. It counts as cell-based, Lactobacillus reuteri. The note with it: Limosilactobacillus reuteri; L. reuteri CF48-3A; CAMHB with 5% laked horse blood, ~48 h; duplicate; read-out: MIC.
The subject of the next experiment is P. aeruginosa PAO1. Kind of experiment: MIC by broth microdilution. To be noted: Pseudomonas aeruginosa; P. aeruginosa PAO1; CAMHB, aerobic; duplicate; read-out: MIC. It counts as cell-based.
Experiment [5] deals with B. breve Strain EX336960VC19. Description: MIC by broth microdilution. It counts as cell-based. To be noted: Bifidobacterium breve; B. breve EX336960VC19; LSM broth, anaerobic; duplicate; read-out: MIC.
The next experiment has as its system L. plantarum ATCC 8014. Description: MIC by broth microdilution. It counts as cell-based. To be noted: Lactiplantibacillus plantarum, ATCC8014; L. plantarum ATCC 8014; CAMHB with 5% laked horse blood, ~48 h; duplicate; read-out: MIC.
The subject of a further experiment is P. distasonis ATCC 8503. Kind of experiment: MIC by broth microdilution. It counts as cell-based. The note with it: Parabacteroides distasonis, ATCC8503; P. distasonis ATCC 8503; supplemented Brucella broth, anaerobic; duplicate; read-out: MIC.
Experiment [6] concerns L. johnsonii Strain 135-1-CHN. Kind of experiment: MIC by broth microdilution. It counts as cell-based. The note with it: Lactobacillus johnsonii, STRAIN1351CHN; L. johnsonii 135-1-CHN; CAMHB with 5% laked horse blood, ~48 h; duplicate; read-out: MIC.
For another experiment, the system named is S. epidermidis 1457. Description: MIC by broth microdilution. It counts as cell-based. To be noted: Staphylococcus epidermidis; S. epidermidis 1457; CAMHB, aerobic; duplicate; read-out: MIC.
For a further experiment, the system named is C. sporogenes ATCC 15579. Description: MIC by broth microdilution. It counts as cell-based. To be noted: Clostridium sporogenes, ATCC15579, BHIS, anaerobic, duplicate.
Experiment [7] relates to B. longum subsp. longum Strain 44B. Kind of experiment: MIC by broth microdilution. It counts as cell-based. To be noted: Bifidobacterium longum; B. longum subsp. longum 44B; LSM broth, anaerobic; duplicate; read-out: MIC.
Experiment [8] relates to B. thetaiotaomicron ATCC 29148. Description: microbe, parasite or virus in culture. It counts as cell-based. The note with it: Bacteroides thetaiotaomicron, ATCC29148; B. thetaiotaomicron ATCC 29148; supplemented Brucella broth, anaerobic; duplicate; read-out: MIC.
A further experiment concerns S. aureus RN4220. Description: MIC by broth microdilution. It counts as cell-based. To be noted: Staphylococcus aureus, CAMHB, aerobic, duplicate.
Another experiment concerns A. baumannii M2. Kind of experiment: MIC by broth microdilution. It counts as cell-based. The note with it: Acinetobacter baumannii; A. baumannii M2; CAMHB, aerobic; duplicate; read-out: MIC.
Experiment [9] concerns C. clostridioforme ATCC 25537. Kind of experiment: MIC by broth microdilution. It counts as cell-based, Clostridium clostridioforme. The note with it: Clostridium, ATCC25537; C. clostridioforme ATCC 25537; BHIS, anaerobic; duplicate; read-out: MIC.

Take `O=C(Nc1ccc(Oc2ccccc2)cc1)c1cc(I)cc(I)c1O` [Compound 5a]: in experiment [1], the MIC amounted to 1 µg/mL (≈ 1.79 µM) and the “in vitro activity against CD4118 (in words)” value was “exhibited in vitro activity”. For the same compound, in experiment [2], the MIC stood at 0.5 µg/mL (≈ 0.897 µM) and the “in vitro activity against CD630 (in words)” value is recorded as “exhibited in vitro activity”.

With `COc1c(I)cc(I)cc1C(=O)Nc1ccc(Oc2ccccc2)cc1` [Compound 5b], in experiment [1], the MIC is over 32 µg/mL and the “in vitro activity against CD4118 (in words)” value was “inactive”. Also, in experiment [2], the MIC is over 32 µg/mL and the “in vitro activity against CD630 (in words)” value was “inactive”.

As to `O=C(Nc1ccc(Oc2ccccc2)cc1)c1cc(I)cc(I)c1` [Compound 5c], in experiment [1], the MIC is over 32 µg/mL and the “in vitro activity against CD4118 (in words)” value was “inactive”. In [2], the MIC was over 32 µg/mL and the “in vitro activity against CD630 (in words)” value was “inactive”.

`CN(C(=O)c1cc(I)cc(I)c1O)c1ccc(Oc2ccccc2)cc1` [Compound 5d]: in [1], the MIC is over 32 µg/mL and the “in vitro activity against CD4118 (in words)” value was “inactive”. For the same compound, in experiment [2], the MIC was over 32 µg/mL and the “in vitro activity against CD630 (in words)” value was “inactive”.

As to `O=C(Nc1ccc(Oc2ccc(F)cc2)cc1)c1cc(I)cc(I)c1O` [Compound 5e], in [1], the MIC was found to be 0.13 µg/mL (≈ 0.226 µM) and the “in vitro activity against CD4118 (in words)” value is on record as “exhibited in vitro activity”. In [2], the MIC was found to be 0.13 µg/mL (≈ 0.226 µM) and the “in vitro activity against CD630 (in words)” value is “exhibited in vitro activity”.

As to `Cc1ccc(Oc2ccc(NC(=O)c3cc(I)cc(I)c3O)cc2)cc1` [Compound 5f], in experiment [1], the MIC amounted to 0.25 µg/mL (≈ 0.438 µM) and the “in vitro activity against CD4118 (in words)” value is on record as “exhibited in vitro activity”. Further, in experiment [2], the MIC amounted to 0.13 µg/mL (≈ 0.228 µM) and the “in vitro activity against CD630 (in words)” value is given as “exhibited in vitro activity”.

Regarding `O=C(Nc1ccc(Oc2ccc(Cl)cc2)cc1)c1cc(I)cc(I)c1O` [Compound 5g], in [1], the MIC was determined as 0.25 µg/mL (≈ 0.423 µM) and the “in vitro activity against CD4118 (in words)” value was “exhibited in vitro activity”. In experiment [2], the MIC turned out to be 0.13 µg/mL (≈ 0.22 µM) and the “in vitro activity against CD630 (in words)” value is on record as “exhibited in vitro activity”.

With `COc1c(I)cc(I)cc1C(=O)Nc1ccc(Oc2ccc(Cl)cc2)cc1` [Compound 5h], in experiment [1], the MIC is over 32 µg/mL and the “in vitro activity against CD4118 (in words)” value is “inactive”. For the same compound, in experiment [2], the MIC is over 32 µg/mL and the “in vitro activity against CD630 (in words)” value is “inactive”.

Consider `O=C(Nc1ccc2ccccc2c1)c1cc(I)cc(I)c1O` [Compound 6a], for which the MIC with B. subtilis ATCC 6051 was 0.06 µg/mL (≈ 0.116 µM); in experiment [3], 32 µg/mL (≈ 62.1 µM); with P. nigrescens ATCC 33563, 8 µg/mL (≈ 15.5 µM); in [4], 32 µg/mL (≈ 62.1 µM); in experiment [1], 0.5 µg/mL (≈ 0.971 µM); in experiment [2] it was 0.5 µg/mL (≈ 0.971 µM). In addition, the MIC was over 32 µg/mL in the experiment on P. aeruginosa PAO1; 32 µg/mL (≈ 62.1 µM) in experiment [5]; over 32 µg/mL with L. plantarum ATCC 8014; 16 µg/mL (≈ 31.1 µM) in the experiment on P. distasonis ATCC 8503; 32 µg/mL (≈ 62.1 µM) in experiment [6]; 0.06 µg/mL (≈ 0.116 µM) in the experiment with S. epidermidis 1457. In addition, the MIC against C. sporogenes ATCC 15579 is 8 µg/mL (≈ 15.5 µM); in [7], 32 µg/mL (≈ 62.1 µM); in experiment [8], over 32 µg/mL; with S. aureus RN4220, 0.25 µg/mL (≈ 0.485 µM); in the experiment with A. baumannii M2 it was over 32 µg/mL; in experiment [9] it was 4 µg/mL (≈ 7.77 µM). Besides, the “in vitro activity against CD4118 (in words)” value in experiment [1] is reported as “exhibited in vitro activity”. Further, the “in vitro activity against CD630 (in words)” value in [2] is reported as “exhibited in vitro activity”.

With `COc1c(I)cc(I)cc1C(=O)Nc1ccc2ccccc2c1` [Compound 6b], in [1], the MIC is over 32 µg/mL and the “in vitro activity against CD4118 (in words)” value is “inactive”. In addition, in experiment [2], the MIC is over 32 µg/mL and the “in vitro activity against CD630 (in words)” value is “inactive”.

On to `O=C(Nc1ccc2ccccc2c1)c1cc(I)cc(I)c1` [Compound 6c], for which, in [1], the MIC was over 32 µg/mL and the “in vitro activity against CD4118 (in words)” value is “inactive”. Besides, in [2], the MIC was over 32 µg/mL and the “in vitro activity against CD630 (in words)” value was “inactive”.

On to `O=C(Nc1ccc(-c2ccccc2)cc1)c1cc(I)cc(I)c1O` [Compound 7a], for which the results for the MIC in [1] and in [2] were 1 µg/mL (≈ 1.85 µM) and 0.5 µg/mL (≈ 0.924 µM), respectively.

Consider `O=C(Nc1ccc(Cl)cc1)c1cc(I)cc(I)c1O` [Compound 7b], for which the MIC in the experiment with B. subtilis ATCC 6051 was found to be 0.06 µg/mL (≈ 0.12 µM); in [3], 32 µg/mL (≈ 64.1 µM); with P. nigrescens ATCC 33563, 4 µg/mL (≈ 8.01 µM); in experiment [4] it was 32 µg/mL (≈ 64.1 µM); in [1], 0.5 µg/mL (≈ 1 µM); in [2], 0.25 µg/mL (≈ 0.501 µM). Also, the MIC is over 32 µg/mL in the experiment with P. aeruginosa PAO1; 8 µg/mL (≈ 16 µM) in experiment [5]; 32 µg/mL (≈ 64.1 µM) with L. plantarum ATCC 8014; 8 µg/mL (≈ 16 µM) in the experiment on P. distasonis ATCC 8503; 32 µg/mL (≈ 64.1 µM) in experiment [6]; at most 0.03 µg/mL in the experiment on S. epidermidis 1457. The MIC against C. sporogenes ATCC 15579 is 16 µg/mL (≈ 32 µM); in experiment [7], 8 µg/mL (≈ 16 µM); in experiment [8], over 32 µg/mL; in the experiment with S. aureus RN4220, 0.06 µg/mL (≈ 0.12 µM); in the experiment with A. baumannii M2, 32 µg/mL (≈ 64.1 µM); in experiment [9], 16 µg/mL (≈ 32 µM).

Consider `O=C(Nc1ccccc1Cl)c1cc(I)cc(I)c1O` [Compound 7c], for which the MIC in [1] and in [2] was 8 µg/mL (≈ 16 µM) throughout.

On to `O=C(Nc1ccc(I)cc1)c1cc(I)cc(I)c1O` [Compound 7d], for which the values for the MIC in [1] and in experiment [2] were 0.25 µg/mL (≈ 0.423 µM) and 0.13 µg/mL (≈ 0.22 µM), respectively.

For `O=C(Nc1ccc2c(c1)Cc1ccccc1-2)c1cc(I)cc(I)c1O` [Compound 7e, N-(9H-Fluoren-2-yl)-2-hydroxy-3,5-diiodobenzamide], the MIC was 0.5 µg/mL (≈ 0.904 µM) in [1] and 0.25 µg/mL (≈ 0.452 µM) in experiment [2].

As to `O=C(NCCc1ccccc1Cl)c1cc(I)cc(I)c1O` [Compound 7f], the MIC in experiment [1] and in experiment [2] was 2 µg/mL (≈ 3.79 µM) in each case.

For the compound `O=C(NCCc1cccc(Cl)c1)c1cc(I)cc(I)c1O` [Compound 7g], the MIC in experiment [1] and in experiment [2] was 1 µg/mL (≈ 1.9 µM) each time.

As for `O=C(NCCc1ccc(Cl)cc1)c1cc(I)cc(I)c1O` [Compound 7h], the values for the MIC in [1] and in [2] were 0.5 µg/mL (≈ 0.948 µM) and 0.25 µg/mL (≈ 0.474 µM), respectively.

Consider `O=C(NCCc1ccc(Cl)cc1Cl)c1cc(I)cc(I)c1O` [Compound 7i], for which the MIC in experiment [1] is 0.5 µg/mL (≈ 0.89 µM); in experiment [2] it was 0.25 µg/mL (≈ 0.445 µM).
